From paper PMC12744750 (Plant Communications, 2025)

Legend:
[1] = system: Arabidopsis pls mutant seedlings (primary root length); assay: Hydroponic peptide feeding: rescue of short primary root of pls mutant; assay type: in vivo, Arabidopsis thaliana
Procedure: (A) Amino acid sequence of the PLS peptide from Arabidopsis thaliana with the Camelina sativa PLS sequence and the synthetic truncations N1, N2, C1, and C2 indicated by horizontal lines. Two cysteine residues are highlighted in bold. (B) Effect of the synthetic Arabidopsis PLS full-length peptide, A. thaliana PLS(FL), and the Camelina PLS peptide (C. sativa PLS) on Arabidopsis primary root length. Wild-type (C24; blue bars) and pls mutant seedlings (orange bars) were grown hydroponically in the presence (100 nM) or absence of peptide for 10 days. ∗∗∗P < 0.05, t-test between C24 and pls. Error bars show ±1 standard error of the mean, n = 20. (C) Effect of synthetic full-length and truncated peptides on primary root length of wild-type (blue bars) and pls mutant (orange bars) Arabidopsis. Seedlings were grown hydroponically in the presence of 50 nM peptide for 10 days. C1, C-terminal 14 amino acids; C2, C-terminal 24 amino acids; N1, N-terminal 22 amino acids; N2, N-terminal 9 amino acids; full-length PLS, 36 amino acids. Error bars show ±1 standard error of the mean, n = 25. ∗∗∗P < 0.05, t-test between C24 and pls.
proPLS::PLS:GFP comprises a 1.5-kb PLS promoter sequence ([Casson et al., 2002]) fused to the PLS open reading frame in pMDC107 (obtained from Prof. P.J. Hussey, Durham University) as a C-terminal GFP translational fusion. The PLS ORF with its 1.5-kb promoter was amplified from the TOPO 2.1 vector, which contained the PLS gene sequence with promoter ([Casson et al., 2002]); the primers used for cloning are listed in supplemental Table 9. pls mutant plants were transformed using the method of [Clough and Bent (1998)]. proPLS::GFP plants were generated using the 1.5-kb PLS promoter ([Casson et al., 2002]) fused to GFP in a wild-type background. p35S::GFP seedlings were obtained from Dr. Piers Hemsley, Durham University. Seedlings of Arabidopsis thaliana ecotype C24 or Col-0, pls mutants, and transgenic PLS overexpressers, all from lab stocks, were grown on solid sterile half-strength (2.2 g/l) Murashige and Skoog medium (Sigma-Aldrich) containing 10 g/l sucrose (half-strength [½] MS10 medium) solidified with 2.5 g/l Phytagel (Sigma-Aldrich) in 90-mm Petri dishes (Sarstedt, Leicester, UK) at 21°C under a 16-h photoperiod as described previously ([Casson et al., 2002]; [Chilley et al., 2006]). N. benthamiana plants (lab stocks) were grown in a controlled environment (21°C, 16-h photoperiod) for transient expression studies in leaf tissue. For hydroponic feeding studies, Arabidopsis seedlings were cultured in liquid ½ MS10 medium (1 ml/well) in sterile 24-well plates (Sarstedt), essentially as described in [Matsuzaki et al. (2010]). For hormone and peptide assays, one seedling was grown in each well at 21°C under a 16-h photoperiod. For peptide feeding experiments, purified freeze-dried peptide was dissolved in DMSO to create a 500-μM stock solution. The peptide stock solution was added to liquid ½ MS10 medium containing 0.1% DMSO to obtain a final peptide concentration of 50 or 100 nM (or 10, 25, 50, and 100 nM for dose-dependent assays). For copper treatments, 1 mM CuSO4 solution was filter sterilized and added to autoclaved liquid ½ MS10 medium to obtain final CuSO4 concentrations of 0, 5, 10, 15, 20, 25, 30, 35, 40, 45, and 50 μM. Seedlings were scanned to create a digital image, and root lengths of the seedlings were measured using ImageJ. Statistical analysis was performed using Real Statistics Resource Pack software (release 3.8, www.real-statistics.com) in Excel (Microsoft) using data from at least 10 independently grown seedlings for root growth analysis; specific numbers are defined for each experiment.

ETR1 = assay: Yeast 2-hybrid PLS-ETR1; assay type: binding, Arabidopsis; details: preliminary yeast 2-hybrid, YRG-2 strain
Procedure: The GAL4 2-hybrid phagemid vector system was used to detect protein–protein interactions in vivo in yeast, using the reporter genes β-galactosidase (lacZ) and histidine (HIS3) in the YRG-2 yeast strain, essentially as described previously ([Zhong et al., 2008]). DNA sequences encoding the target (ETR1) and bait (PLS) were inserted into the pAD-GAL4-2.1 A and pBD-GAL4 Cam phagemid vectors, respectively, and expressed as hybrid proteins. The hybrid proteins were then assayed for protein–protein interaction.
DNA sequences encoding the target and bait proteins were prepared by PCR amplification using primers designed specifically for the target (ETR1) and bait (PLS). Each set of primers contained specific endonuclease recognition sites on the ends corresponding to the restriction sites in the MCS of the pAD-GAL4-2.1 A and pBD-GAL4 Cam phagemid vectors. The DNA constructs for the target (ETR1) and bait (PLS) with specific restriction sites on the ends were then transformed into the TOPO 2.1 vector, and the sequence of the amplified DNA was confirmed by sequencing with M13 forward (CTG GCC GTC GTT TTA C) and M13 reverse (CAG GAA ACA GCT ATG AC) primers. […] The DNA sequences encoding the target (ETR1) and bait (PLS) were then ligated into the same reading frame as the GAL4 AD of the pAD-GAL4-2.1 phagemid vector and the GAL4 BD of the pBD-GAL4 Cam phagemid vector. […]

[2] = Anaerobic Cu(I) titration monitored by UV-vis and fluorescence spectra; assay type: binding; details: 19.8 μM synthetic PLS, titration with CuCl; features at 242 nm and 306 nm
Procedure: Freeze-dried synthetic PLS peptide (Cambridge Research Biochemicals) was dissolved in DMSO. An aliquot was added to aqueous buffer (10 mM HEPES [pH 7], 20 mM NaCl, 80 mM KCl), and absorbance was recorded at 280 nm. PLS concentration was estimated from the absorbance and the ProtParam estimated extinction coefficient of 2980 M^−1 cm^−1. Concurrently, a sample was submitted for quantitative amino acid analysis (Abingdon Health Laboratory Services). From this analysis, a conversion factor of 2.27 was generated, which was applied to the concentrations determined by A280 nm.
All Cu(I) titration experiments were carried out in an anaerobic chamber (Belle Technology) using metal-free CHELEX-treated, degassed buffers. […] The reductant NH2OH was included at a final concentration of 1 mM to maintain Cu(I) in its reduced state. […] After each addition, solutions were thoroughly mixed and absorbance spectra recorded using a Lambda 35 UV/Vis spectrophotometer (PerkinElmer). Titration isotherm data were fitted using simulated affinity curves with DynaFit ([Kuzmič, 2009]).

In the case of “PLS(FL): full-length 36-amino-acid PLS peptide from Arabidopsis (MKPRLCFNFRRRSISPCYISISYLLVAKLFKLFKIH)”, the “rescue of root growth of pls seedlings” value ([1]; 50 nM peptide, hydroponic, 10 days, n = 25 (Figure 2C)) is reported as “rescued root growth”, the “difference in rescue effects of PLS(FL) and PLS(N1), t-test P” value ([1]; 50 nM, n = 25) is reported as over 0.1 and the “difference in rescue effects of PLS(FL) and PLS(N1)” value ([1]; 50 nM, n = 25, t-test) is reported as “did not differ significantly”. For the same substance, the “rescue of short primary root length of pls mutant” value ([1]; hydroponic, 10 days, 100 nM (Figure 2B) or 50 nM (Figure 2C)) was “able to rescue the short primary root length”, the “interaction with ETR1” value (ETR1) was “interacts with ETR1” and the “Cu(I)-dependent change of UV-vis and fluorescence spectra” value [2] was “consistent with complex formation”.
